Results published in US8993542B2, “Methods of treating viral infections” (priority 2008, dated 2015).

Key:
HIV = assay: microbe, parasite or virus in culture; type: cell-based
HIV-1IIIB = assay: Two-drug combination antiviral assay in CEM cells (CPE), MacSynergy II; type: cell-based; details: for Antagonism Volume, Result 1 / Antagonism Volume, Result 2 / Antagonism Volume, Result 3 / Mean Antagonism Volume (n = 3) / Mean Synergy Volume (n = 3) / Synergy Volume, Result 1 / Synergy Volume, Result 2 / Synergy Volume, Result 3: in combination with CMX157, CEM-SS cells, 95% confidence; for Interpretation of Antiviral Results (MacSynergy): two-drug combination (with CMX157; control d4T/RBV), CEM-SS cells

Structure (SMILES): Nc1ccn([C@@H]2CS[C@H](CO)O2)c(=O)n1 [3TC, (2R, 5S, cis)-4-amino-1-(2-hydroxymethyl-1,3-oxathiolan-5-yl)-(1H)-pyrimidin-2-one]
- IC50 (HIV; Human immunodeficiency virus 1, PANEL 1, WT): 3.24 µM
- IC50 (HIV; Human immunodeficiency virus 1, PANEL 2, WT): 4.44 µM
- IC50 (HIV; Human immunodeficiency virus 1, PANEL 3, 6 TAMs, no 184): 13.9 µM
- IC50 (HIV; Human immunodeficiency virus 1, PANEL 6, 6 TAMs + 184): > 300 µM
- IC50 (HIV; Human immunodeficiency virus 1, PANEL 7, 184V): > 300 µM
- IC50 (HIV; Human immunodeficiency virus 1, PANEL 9, 69ins, no 184): 45.9 µM
- IC50 (HIV; Human immunodeficiency virus 1, PANEL 12, 69ins + 184): > 300 µM
- IC50 (HIV; Human immunodeficiency virus 1, PANEL 14, 65R, no 184): 70.8 µM
- IC50 (HIV; Human immunodeficiency virus 1, PANEL 15, 65R + 184V): > 300 µM
- IC50 (HIV; Human immunodeficiency virus 1, PANEL 17, L74V): 6.98 µM
- IC50 (HIV; Human immunodeficiency virus 1, PANEL 19, L74V + M184V): > 300 µM
- IC50 (HIV; Human immunodeficiency virus 1, PANEL 26, 151M, no 184): 89.6 µM
- IC50 (HIV; Human immunodeficiency virus 1, PANEL 28, 151M + 184): > 300 µM
- IC50 (HIV; Human immunodeficiency virus 1, PANEL 29, L74V − SDM): 6.1 µM
- IC50 (HIV; Human immunodeficiency virus 1, PANEL 30, M184V − SDM): > 300 µM
- IC50 (HIV; Human immunodeficiency virus 1, PANEL 31, K65R − SDM): 43.3 µM
- IC50 (HIV; Human immunodeficiency virus 1, PANEL 33, T215Y): 6.12 µM
- IC50 (HIV; Human immunodeficiency virus 1, PANEL 34, T215Y + M184V): > 300 µM
- IC50 (HIV; Human immunodeficiency virus 1, PANEL 35, M41L + T215Y): 7.55 µM
- IC50 (HIV; Human immunodeficiency virus 1, PANEL 37, M41L + T215Y + M184V): > 300 µM
- IC50 (HIV; Human immunodeficiency virus 1, PANEL 38, M41L + L210W + T215Y): 10.3 µM
- IC50 (HIV; Human immunodeficiency virus 1, PANEL 39, M41L + L210W + T215Y): 5.89 µM
- IC50 (HIV; Human immunodeficiency virus 1, PANEL 40, M41L + L210W + T215Y + M184V): > 300 µM
- IC50 (HIV; Human immunodeficiency virus 1, PANEL 41, M41L + L210W + T215Y + M184V): > 300 µM
- IC50 (HIV; Human immunodeficiency virus 1, PANEL 42, D67N + K70R): 8.07 µM
- IC50 (HIV; Human immunodeficiency virus 1, PANEL 44, D67N + K70R + T215F + K219E + M184V): > 300 µM
- IC50 (HIV; Human immunodeficiency virus 1, PANEL 45, L210W + T215Y): 7.26 µM
- IC50 (HIV; Human immunodeficiency virus 1, PANEL 46, D67N + K70E): 10.8 µM
- IC50 (HIV; Human immunodeficiency virus 1, PANEL 47, D67N + K70E + M184V): > 300 µM
- IC50 (HIV; Human immunodeficiency virus 1, PANEL 48, K70E + M184V): > 300 µM

Structure (SMILES): CC(C)CN(C[C@@H](O)[C@H](Cc1ccccc1)NC(=O)O[C@H]1CCOC1)S(=O)(=O)c1ccc(N)cc1 [Amprenavir (APV), amprenavir]
- Antagonism Volume, Result 1 (HIV-1IIIB): 0 nM^2 %, μM^2 % or nMμM %
- Antagonism Volume, Result 2 (HIV-1IIIB): 0 nM^2 %, μM^2 % or nMμM %
- Antagonism Volume, Result 3 (HIV-1IIIB): 0 nM^2 %, μM^2 % or nMμM %
- Mean Antagonism Volume (n = 3) (HIV-1IIIB): 0 nM^2 %, μM^2 % or nMμM %
- Mean Synergy Volume (n = 3) (HIV-1IIIB): 51.4 nM^2 %, μM^2 % or nMμM %
- Synergy Volume, Result 1 (HIV-1IIIB): 104 nM^2 %, μM^2 % or nMμM %
- Synergy Volume, Result 2 (HIV-1IIIB): 43.1 nM^2 %, μM^2 % or nMμM %
- Synergy Volume, Result 3 (HIV-1IIIB): 7.31 nM^2 %, μM^2 % or nMμM %
- Interpretation of Antiviral Results (MacSynergy) (HIV-1IIIB): slightly synergistic

Structure (SMILES): COC(=O)N[C@H](C(=O)N[C@@H](Cc1ccccc1)[C@@H](O)CN(Cc1ccc(-c2ccccn2)cc1)NC(=O)[C@@H](NC(=O)OC)C(C)(C)C)C(C)(C)C [Atazanavir (ATV), atazanavir]
- Interpretation of Antiviral Results (MacSynergy) (HIV-1IIIB): slightly synergistic

Structure (SMILES): CC(C)CN(C[C@@H](O)[C@H](Cc1ccccc1)NC(=O)O[C@H]1CO[C@H]2OCC[C@H]21)S(=O)(=O)c1ccc(N)cc1 [Darunavir (DRV), darunavir]
- Antagonism Volume, Result 1 (HIV-1IIIB): 0 nM^2 %, μM^2 % or nMμM %
- Antagonism Volume, Result 2 (HIV-1IIIB): −2.31 nM^2 %, μM^2 % or nMμM %
- Antagonism Volume, Result 3 (HIV-1IIIB): 0 nM^2 %, μM^2 % or nMμM %
- Mean Antagonism Volume (n = 3) (HIV-1IIIB): −0.54 nM^2 %, μM^2 % or nMμM %
- Mean Synergy Volume (n = 3) (HIV-1IIIB): 43.2 nM^2 %, μM^2 % or nMμM %
- Synergy Volume, Result 1 (HIV-1IIIB): 109 nM^2 %, μM^2 % or nMμM %
- Synergy Volume, Result 2 (HIV-1IIIB): 11.5 nM^2 %, μM^2 % or nMμM %
- Synergy Volume, Result 3 (HIV-1IIIB): 9.48 nM^2 %, μM^2 % or nMμM %

Structure (SMILES): CC(C)Nc1cccnc1N1CCN(C(=O)c2cc3cc(NS(C)(=O)=O)ccc3[nH]2)CC1 [Delavirdine (DLV), delavirdine]
- Antagonism Volume, Result 1 (HIV-1IIIB): 0 nM^2 %, μM^2 % or nMμM %
- Antagonism Volume, Result 2 (HIV-1IIIB): 0 nM^2 %, μM^2 % or nMμM %
- Antagonism Volume, Result 3 (HIV-1IIIB): −2.58 nM^2 %, μM^2 % or nMμM %
- Mean Antagonism Volume (n = 3) (HIV-1IIIB): 0 nM^2 %, μM^2 % or nMμM %
- Mean Synergy Volume (n = 3) (HIV-1IIIB): 72.9 nM^2 %, μM^2 % or nMμM %
- Synergy Volume, Result 1 (HIV-1IIIB): 152 nM^2 %, μM^2 % or nMμM %
- Synergy Volume, Result 2 (HIV-1IIIB): 68.4 nM^2 %, μM^2 % or nMμM %
- Synergy Volume, Result 3 (HIV-1IIIB): 1.01 nM^2 %, μM^2 % or nMμM %
- Interpretation of Antiviral Results (MacSynergy) (HIV-1IIIB): slightly synergistic
